In US5639765A, “Guanidinoalkyl glycine β-amino acids useful for inhibiting bone loss” (G. D. Searle & Co., priority 1995, dated 1997):
Where a name gives a salt, the structure may show the parent alone.

What was measured:
[1] = target: T1, Human vitronectin receptor (αv β3) (Homo sapiens, UniProt P05106+P06756); experiment: Solid Phase Receptor Assay, purified αv β3 (vitronectin receptor) competition with biotinylated vitronectin; assay type: binding; conditions: 1 nM biotinylated vitronectin, 2 h competition, room temperature, R = H, read-out: VnR/IC50
T1 construct: purified from human placenta; from tissue; host or cells: human placenta
Procedure: Human vitronectin receptor(αv β3) was purified from human placenta as previously described [Pytela et al., Methods in Enzymology, 144:475-489 (1987)]. Human vitronectin was purified from fresh frozen plasma as previously described [Yatohgo et al., Cell Structure and Function, 13:281-292 (1988)]. Biotinylated human vitronectin was prepared by coupling NHS-biotin from Pierce Chemical Company (Rockford, Ill.) to purified vitronectin as previously described [Charo et al., J. Biol. Chem., 266(3):1415-1421 (1991)]. Assay buffer, OPD substrate tablets, and RIA grade BSA were obtained from Sigma (St. Louis, Mo.). Anti-biotin antibody was obtained from Calbiochem (La Jolla, Calif.). GRGDSP peptide was purchased from Bachem (Torrance, Calif.). Linbro microtiter plates were obtained from Flow Labs (McLean, Va.). ADP reagent was obtained from Sigma (St. Louis, Mo.).
This assay was essentially the same as previously reported [Niiya et al., Blood, 70:475-483 (1987)]. The purified human vitronectin receptor (αv β3) was diluted from stock solutions to 1.0 μg/mL in Tris-buffered saline containing 1.0 mM Ca^++, Mg^++, and Mn^++, pH 7.4 (TBS^+++). The diluted receptor was immediately transferred to Linbro microtiter plates at 100 μL/well (100 ng receptor/well). The plates were sealed and incubated overnight at 4° C. to allow the receptor to bind to the wells. All remaining steps were at room temperature. The assay plates were emptied and 200 μL of 1% RIA grade BSA in TBS^+++ (TBS^+++ /BSA) were added to block exposed plastic surfaces. Following a 2 hour incubation, the assay plates were washed with TBS^+++ using a 96 well plate washer. Logarithmic serial dilution of the test compound and controls were made starting at a stock concentration of 2 mM and using 2 nM biotinylated vitronectin in TBS^+++ /BSA as the diluent. This premixing of labeled ligand with test (or control) ligand, and subsequent transfer of 50 μL aliquots to the assay plate was carried out with a CETUS Propette robot; the final concentration of the labeled ligand was 1 nM and the highest concentration of test compound was 1.0×10^-4 M. The competition occurred for two hours after which all wells were washed with a plate washer as before. Affinity purified horseradish peroxidase labeled goat anti-biotin antibody was diluted 1:3000 in TBS^+++ /BSA and 125 μL were added to each well. After 30 minutes, the plates were washed and incubated with OPD/H2 O2 substrate in 100 mM/L Citrate buffer, pH 5.0. The plate was read with a microtiter plate reader at a wavelength of 450 nm and when the maximum-binding control wells reached an absorbance of about 1.0, the final A450 were recorded for analysis. The data were analyzed using a macro written for use with the EXCEL™ spreadsheet program. The mean, standard deviation, and % CV were determined for duplicate concentrations. The mean A450 values were normalized to the mean of four maximum-binding controls (no competitor added)(B-MAX). The normalized values were subjected to a four parameter curve fit algorithm [Rodbard et al., Int. Atomic Energy.Agency, Vienna, pp 469 (1977)], plotted on a semi-log scale, and the computed IC50 and corresponding R^2 was reported. GRGDSP, a peptide fragment of fibrinogen, was included on each plate as a positive control.

[2] = test system: osteoclastic activity; conditions: cited from earlier work
[3] = test system: osteoclastic activity; conditions: cited from earlier work; remark: listed apart in the source

Molecule	IC50 [1] [nM]	inhibition of osteoclastic activity in vitro [2]	inhibition of osteoclastic activity in vivo [3]
N=C(N)NCCCC(=O)NCCC(=O)NC(CC(=O)O)c1cccnc1 (racemic) [Example 5, (±) β-[[3-[[4-[(aminoiminomethyl)amino]-1-oxobutyl]amino]-1-oxopropyl]amino]-3-pyridinepropanoic acid, bistrifluoroacetate salt]	706	–	–
N=C(N)NCC(CC(=O)NCC(=O)NC(CC(=O)O)c1cccnc1)c1ccccc1 (racemic) [Example 6, (±) β-[[2-[[4-[(aminoiminomethyl, amino]-1-oxo-3-phenylbutyl]amino]-1-oxoethyl]amino]-3-pyridinepropanoic acid, bistrifluoroacetate salt]	31.6	–	–
echistatin	–	potent inhibitors	potent inhibitors

Second part, led by results:

IC50 [1] [nM]	Molecule	inhibition of osteoclastic activity in vitro [2]	inhibition of osteoclastic activity in vivo [3]
23.1	N=C(N)NCCCC(=O)NCC(=O)NC(CC(=O)O)c1cccnc1 (racemic) [Example 3, (±) β-[[2-[[4-[(aminoiminomethyl)amino]-1-oxobutyl]amino]-1-oxoethyl]amino]-3-pyridinepropanoic acid, bistrifluoroacetate salt]	–	–
460	N=C(N)NCCCCCC(=O)NCC(=O)NC(CC(=O)O)c1cccnc1 (racemic) [Example 4, (±) β-[[2-[[6-[(aminoiminomethyl)amino]-1-oxohexyl]amino]-1-oxoethyl]amino]-3-pyridinepropanoic acid, bistrifluoroacetate salt]	–	–
9.4	N=C(N)NCCCCC(=O)NCC(=O)NC(CC(=O)O)c1cccnc1 (stereo not drawn) [Example 1, β-[[2-[[5-[(aminoiminomethyl]amino]-1-oxopentyl]amino]-1-oxoethyl]amino]-3-pyridinepropanoic acid, bistrifluoroacetate salt]	–	–
